Reference: patent US4083951A, “Pharmaceutical composition” (Beecham Group Limited, priority 1976, dated 1978)

Columns and labels:
[1] = system: phenylquinone induced writhing; experiment: phenylquinone induced writhing in the mouse (analgesic effects); type: in vivo; conditions: dose in terms of acetyl salicylate content, mixture at 2:1 ratio of equivalents, read-out: ED50 (analgesic effect)
Protocol: Sodium acetyl salicylate and mixtures of sodium acetyl salicylate and ferrous sulphate (2:1 ratio of equivalents) were tested against phenylquinone induced writhing in the mouse. Dose responses were plotted in terms of acetyl salicylate content and the following ED50 values obtained: […]

gastric erosions = experiment: gastric irritancy in starved rats, 1 hour contact time; type: in vivo, rat; conditions: rats fasted 18 hr
Protocol: When tested in starved rats (18 hr. fasted) with a 1 hour contact time the following results were obtained:
*Mixture made from dry compounds
**Constituents dosed as solutions

Compound	ED50 [1] [mg/kg]	% incidence gastric erosions (gastric erosions; dose 160 mg/kg) [%]	% incidence gastric erosions (gastric erosions; dose 338 mg/kg) [%]	% incidence gastric erosions (gastric erosions; dose 100 mg/kg) [%]
CC(=O)Oc1ccccc1C(=O)O [Sodium acetyl salicylate]	56	88	75	–
CC(=O)Oc1ccccc1C(=O)O [Calcium acetyl salicylate]	–	–	–	25
